Assays:
[1] = molecular target: Non-receptor tyrosine-protein kinase TYK2 (Homo sapiens, UniProt P29597); test: (§1) In Vitro Assays for Determining the Inhibition of Janus Kinases: The in vitro inhibition of recombinant human JAKs was determined as follow.Compounds were tested in LANTHASCREEN™ time-resolved fluorescence energy transfer (TR-FRET) enzymatic assays from Invitrogen. The human Janus kinase 1 (JAK1) used in the assay is the recombinant JAK1 catalytic domain (amino acids 866-1154) expressed and purified from insect cells (Invitrogen, Cat. No. PV4774). The human Janus kinase 2 (JAK2) used in the assay is the recombinant JAK2 catalytic domain (amino acids 808-1132) expressed and purified from insect cells (Invitrogen, Cat. No. PV4210). The human Janus kinase 3 (JAK3) used in the assay is the recombinant JAK3 catalytic domain (amino acids 781-1124) expressed and purified from insect cells (Invitrogen, Cat. No. PV3855). The human tyrosine kinase 2 (TYK2) used in the assay is the recombinant TYK2 catalytic domain (amino acids 833-1187) expressed and purified from insect cells (Invitrogen, Cat. No. PV4790). The substrate is a recombinant STAT1 expressed as a fusion with GFP (Green Fluorescent Protein) to act as a physiological substrate (Invitrogen, Cat. No. PV5211).Test compounds were prepared and diluted in DMSO in 3-fold serial dilutions for 10 doses to 100× of the final testing concentrations. The compounds were then further diluted to 4× by the kinase reaction buffer (Invitrogen, Cat. No. PV3189). The enzymatic reaction for compound testing was performed in a white 384-well polypropylene plate (Packard, Cat. No. 6005214) with a total reaction volume of 10 μL containing 440 ng/mL JAK1, 11 ng/mL JAK2, 400 ng/mL JAK3, or 200 ng/mL TYK2, 100 nM substrate, and 1 mM ATP. The assay started with loading 2.5 μL of JAK1, JAK2, JAK3, or TYK2 diluted in the kinase reaction buffer to wells, followed by addition of an equal volume of 4× compounds for 15-min incubation at room temperature for pre-treatment. The enzymatic reaction was initiated by addition of 5 μL of a mixture of the substrate and ATP prepared in the kinase reaction buffer. […]
[2] = molecular target: Tyrosine-protein kinase JAK2 (Homo sapiens, UniProt O60674); test: as §1
[3] = molecular target: Tyrosine-protein kinase JAK1 (Homo sapiens, UniProt P23458); test: as §1

Measured: IC50

Sequence of Tyrosine-protein kinase JAK1 (P23458 whole entry): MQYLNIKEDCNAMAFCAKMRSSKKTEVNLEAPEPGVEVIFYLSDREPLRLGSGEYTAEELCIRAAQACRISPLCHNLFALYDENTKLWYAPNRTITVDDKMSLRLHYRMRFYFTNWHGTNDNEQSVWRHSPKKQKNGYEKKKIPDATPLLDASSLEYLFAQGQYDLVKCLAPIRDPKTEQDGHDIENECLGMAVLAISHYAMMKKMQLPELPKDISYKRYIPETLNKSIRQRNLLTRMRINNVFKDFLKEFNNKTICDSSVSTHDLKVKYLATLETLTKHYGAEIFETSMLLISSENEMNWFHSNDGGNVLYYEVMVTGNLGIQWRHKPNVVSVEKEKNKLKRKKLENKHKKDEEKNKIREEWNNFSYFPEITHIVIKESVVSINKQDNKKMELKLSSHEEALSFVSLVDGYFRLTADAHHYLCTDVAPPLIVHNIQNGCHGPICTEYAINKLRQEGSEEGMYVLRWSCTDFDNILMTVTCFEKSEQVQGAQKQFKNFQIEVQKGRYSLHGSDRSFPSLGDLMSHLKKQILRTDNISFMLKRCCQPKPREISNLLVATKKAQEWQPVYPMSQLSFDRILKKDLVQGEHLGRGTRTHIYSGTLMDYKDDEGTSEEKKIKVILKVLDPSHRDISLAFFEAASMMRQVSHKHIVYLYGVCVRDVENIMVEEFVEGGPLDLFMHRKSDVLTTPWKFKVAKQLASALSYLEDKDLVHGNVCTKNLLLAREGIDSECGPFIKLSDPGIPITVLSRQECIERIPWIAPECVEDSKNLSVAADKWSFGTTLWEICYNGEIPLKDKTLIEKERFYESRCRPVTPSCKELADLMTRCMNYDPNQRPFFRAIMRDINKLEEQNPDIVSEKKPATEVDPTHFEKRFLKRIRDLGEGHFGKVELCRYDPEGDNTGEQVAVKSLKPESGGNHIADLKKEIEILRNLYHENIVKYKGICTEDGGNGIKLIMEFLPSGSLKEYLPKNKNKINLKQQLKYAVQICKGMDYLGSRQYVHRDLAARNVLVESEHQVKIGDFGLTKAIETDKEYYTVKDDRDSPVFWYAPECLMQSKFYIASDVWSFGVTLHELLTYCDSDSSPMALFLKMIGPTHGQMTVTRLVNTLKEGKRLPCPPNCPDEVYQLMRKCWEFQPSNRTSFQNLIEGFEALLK
Sequence of Non-receptor tyrosine-protein kinase TYK2 (P29597 whole entry, the tested form may be a part): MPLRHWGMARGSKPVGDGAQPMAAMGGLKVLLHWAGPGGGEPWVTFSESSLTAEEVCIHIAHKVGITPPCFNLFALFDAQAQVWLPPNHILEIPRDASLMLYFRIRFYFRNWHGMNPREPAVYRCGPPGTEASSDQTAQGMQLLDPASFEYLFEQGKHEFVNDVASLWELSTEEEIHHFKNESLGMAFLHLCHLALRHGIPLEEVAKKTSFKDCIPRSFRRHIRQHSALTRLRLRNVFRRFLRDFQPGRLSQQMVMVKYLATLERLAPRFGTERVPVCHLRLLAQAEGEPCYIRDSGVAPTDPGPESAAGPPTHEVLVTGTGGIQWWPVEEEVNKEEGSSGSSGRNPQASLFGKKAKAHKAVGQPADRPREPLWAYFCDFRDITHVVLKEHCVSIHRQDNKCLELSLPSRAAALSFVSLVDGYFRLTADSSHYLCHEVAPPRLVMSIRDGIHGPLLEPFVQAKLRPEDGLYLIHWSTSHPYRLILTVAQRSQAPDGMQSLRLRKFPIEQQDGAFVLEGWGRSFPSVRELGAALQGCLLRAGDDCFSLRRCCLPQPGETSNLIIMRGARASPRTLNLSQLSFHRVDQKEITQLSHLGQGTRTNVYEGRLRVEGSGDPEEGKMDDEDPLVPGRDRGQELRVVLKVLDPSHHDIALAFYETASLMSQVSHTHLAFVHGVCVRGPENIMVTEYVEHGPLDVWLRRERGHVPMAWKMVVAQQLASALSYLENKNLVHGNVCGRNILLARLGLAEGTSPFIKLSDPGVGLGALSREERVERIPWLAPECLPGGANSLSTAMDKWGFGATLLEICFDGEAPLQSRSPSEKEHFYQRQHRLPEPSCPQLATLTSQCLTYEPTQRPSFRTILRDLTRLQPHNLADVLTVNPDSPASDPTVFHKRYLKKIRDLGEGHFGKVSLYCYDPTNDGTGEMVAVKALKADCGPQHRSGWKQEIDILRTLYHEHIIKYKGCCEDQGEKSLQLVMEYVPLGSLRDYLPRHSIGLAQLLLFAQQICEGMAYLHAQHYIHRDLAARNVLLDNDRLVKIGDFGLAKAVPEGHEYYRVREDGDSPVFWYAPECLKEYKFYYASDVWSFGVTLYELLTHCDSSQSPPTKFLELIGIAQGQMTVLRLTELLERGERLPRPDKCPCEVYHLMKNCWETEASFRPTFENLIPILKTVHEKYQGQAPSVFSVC
Sequence of Tyrosine-protein kinase JAK2 (O60674 whole entry): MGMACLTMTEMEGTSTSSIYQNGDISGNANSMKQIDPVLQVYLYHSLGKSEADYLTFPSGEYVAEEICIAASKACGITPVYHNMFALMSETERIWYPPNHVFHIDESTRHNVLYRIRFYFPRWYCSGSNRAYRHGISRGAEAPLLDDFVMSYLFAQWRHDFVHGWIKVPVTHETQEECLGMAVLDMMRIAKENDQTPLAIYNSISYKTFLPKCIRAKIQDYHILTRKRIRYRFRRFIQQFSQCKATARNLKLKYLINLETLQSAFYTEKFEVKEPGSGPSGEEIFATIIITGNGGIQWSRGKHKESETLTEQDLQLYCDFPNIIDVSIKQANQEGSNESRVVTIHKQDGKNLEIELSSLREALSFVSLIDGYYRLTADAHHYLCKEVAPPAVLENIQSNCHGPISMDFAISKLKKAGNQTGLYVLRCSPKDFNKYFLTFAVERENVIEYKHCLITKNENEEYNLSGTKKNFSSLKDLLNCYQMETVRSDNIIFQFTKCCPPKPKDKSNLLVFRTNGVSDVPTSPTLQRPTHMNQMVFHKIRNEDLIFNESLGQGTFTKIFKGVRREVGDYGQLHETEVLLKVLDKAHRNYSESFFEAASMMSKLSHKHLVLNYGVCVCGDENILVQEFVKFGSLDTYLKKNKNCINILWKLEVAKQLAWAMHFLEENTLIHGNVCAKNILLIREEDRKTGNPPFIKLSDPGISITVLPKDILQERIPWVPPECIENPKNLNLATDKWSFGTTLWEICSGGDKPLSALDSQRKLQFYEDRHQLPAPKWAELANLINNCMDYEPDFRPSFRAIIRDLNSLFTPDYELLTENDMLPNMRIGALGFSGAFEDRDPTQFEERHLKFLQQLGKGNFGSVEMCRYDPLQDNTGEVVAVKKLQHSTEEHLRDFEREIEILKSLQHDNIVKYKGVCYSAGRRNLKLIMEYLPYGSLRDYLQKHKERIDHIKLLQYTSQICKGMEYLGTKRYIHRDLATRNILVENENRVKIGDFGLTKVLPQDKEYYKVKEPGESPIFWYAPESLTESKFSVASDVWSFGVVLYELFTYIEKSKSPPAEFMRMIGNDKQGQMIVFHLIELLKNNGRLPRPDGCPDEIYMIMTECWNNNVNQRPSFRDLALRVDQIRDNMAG

N#CC1(c2ccc(-c3cccc4nc(NC(=O)C5CC5)cn34)cc2)CC1
> 5 µM: [1] | [2] | [3]

From ChEMBL document CHEMBL5727863, “Substituted imidazo[1,2-A]pyridin-2-ylamine compounds, and pharmaceutical compositions and methods of use thereof” (2020)
